# Patent publication US4522815A, “Anthracycline glycosides” (priority 1982, dated 1985)
# Experiments:
# [1] = Antitumor activity against ascitic P388 leukemia in CDF-1 mice, treatment i.p. on day 1; type: in vivo; conditions: mouse, in vivo, ip, CDF-1 mice; read-out: Maximal Tolerated Dose (Mx TD)
# Protocol: (§1) The primary screening […] was carried out in CDF-1 mice bearing ascitic P388 leukemia (10^6 cells/mouse). Both IIa and IIc were suspended in 10%. Tween 80 and injected intraperitoneally.
# (§2) Results of the primary screening "in vivo" carried out in CDF-1 mice bearing P388 ascitic leukemia and treated i.p. the day after tumor transplantation, are reported in Table 5.
# (§3) Antitumor activity against ascitic P388 leukekemia.
# (§4) Treatment i.p. on day 1.
# (§5) ^a median survival time; % over untreated controls
# (§6) ^b long term survivors (≥ 60 days)
# (§7) ^c evaluated on the basis of autoptic findings on dead mice
# (§8) ^d data of two experiments (range)
# (§9) ^e date of three experiments (range)
# (§10) Antitumor activity of Ib and Id against ascitic P388
# as §4
# ascitic P388 leukemia = assay: as above; type: in vivo; conditions: for LTS, long term survivors (≥ 60 days) / T/C, median survival time; % over untreated controls / Toxic deaths (autoptic findings on dead mice): Table 2
# Protocol: as §1, §2, §3, §4, §5, §6, §7, §8, §9, §10, §4
# HeLa cells = assay: Colony inhibition test against HeLa cells in vitro (cloning efficiency), treatment for 24 hrs; type: cell-based
smiles,measurement,setting,value
"COc1cccc2c1C(=O)c1c(O)c3c(c(O)c1C2=O)C[C@@](O)(C(C)=O)C[C@@H]3O[C@H]1C=C[C@@H](O)[C@H](C)O1 [Compound IIa, 7-0-(2,3,6-trideoxy-α-L-erythro-hex-2-enopyranosyl)-daunomycinone]",MTD,[1],100 mg/kg
same,"LTS, long term survivors (≥ 60 days)",ascitic P388 leukemia; 75 mg/kg i.p. day 1,0/5
same,"T/C, median survival time; % over untreated controls",ascitic P388 leukemia; 75 mg/kg i.p. day 1,120%
same,Toxic deaths (autoptic findings on dead mice),ascitic P388 leukemia; 75 mg/kg i.p. day 1,0/5
same,"LTS, long term survivors (≥ 60 days)",ascitic P388 leukemia; 100 mg/kg i.p. day 1,0/10
same,"T/C, median survival time; % over untreated controls",ascitic P388 leukemia; 100 mg/kg i.p. day 1,90%
same,Toxic deaths (autoptic findings on dead mice),ascitic P388 leukemia; 100 mg/kg i.p. day 1,1/10
same,toxicity and potency vs parent drugs DNR and DX,"ascitic P388 leukemia; ascitic P388, i.p.",less toxic and potent than the parent drugs DNR and DX
same,antitumor activity on P388 ascitic leukemia,"ascitic P388 leukemia; i.p. day 1, IIa: two doses tested incl. Mx TD",inactive
same,times less cytotoxic than DNR,"HeLa cells; HeLa cells cloning efficiency, vs DNR",about 25 times
same,activity at 0.0015 µg/mL,"HeLa cells; Homo sapiens, HeLa, Table 1, 1.5 ng/ml, 24 hrs, read-out: No of colonies, % of untreated controls",120%
same,activity at 0.0062 µg/mL,"HeLa cells; Homo sapiens, HeLa, Table 1, 6.2 ng/ml, 24 hrs, read-out: No of colonies, % of untreated controls",127%
same,activity at 0.025 µg/mL,"HeLa cells; Homo sapiens, HeLa, Table 1, 25 ng/ml, 24 hrs, read-out: No of colonies, % of untreated controls",143%
same,activity at 0.1 µg/mL,"HeLa cells; Homo sapiens, HeLa, Table 1, 100 ng/ml, 24 hrs, read-out: No of colonies, % of untreated controls",136%
same,activity at 0.4 µg/mL,"HeLa cells; Homo sapiens, HeLa, Table 1, 400 ng/ml, 24 hrs, read-out: No of colonies, % of untreated controls",146%
same,IC50,"HeLa cells; Homo sapiens, Table 1, HeLa colony inhibition, 24 hrs, read-out: ID50 (the source's name)",0.4 µg/mL
